From ChEMBL document CHEMBL5370528, “Synthesis-accessibility-oriented design of c-Jun N-terminal kinase 1 inhibitor” (Eur J Med Chem, 2023) come the findings set out here.

Calls of active or inactive are those of the source. The calls are words filed in the database; no cut-off is given here.

Usually inhibition stands for the change of the read-out against control, counted positive when it falls.

The test system of data set [1] is Mus musculus. Nature of the data set: Anti-fibrotic activity in bleomycin-induced C57BL/6 mouse model of pulmonary fibrosis assessed as alleviation of alveolar wall thickening in lungs at 25 to 75 mg/kg, po administered twice a day for 3 weeks by H&E staining based analysis. The data set is classed as functional, organism-based. The note with it: dose 25-75 mg/kg.

The target in data set [2] is Dual specificity mitogen-activated protein kinase kinase 2 (Homo sapiens) (UniProt P36507). Nature of the data set: Inhibition of MAP2K2 (unknown origin) at 1 uM preincubated for 10 mins followed by substrate addition and measured after 60 mins in the presence of ATP by ADP-Glo reagent based luminescence assay relative to control. The note with it: time 70.0 min. A general note: ADP-Glo first removes unused ATP, then detects ADP through luciferase.
Chain of Dual specificity mitogen-activated protein kinase kinase 2 (Homo sapiens) (P36507 whole entry): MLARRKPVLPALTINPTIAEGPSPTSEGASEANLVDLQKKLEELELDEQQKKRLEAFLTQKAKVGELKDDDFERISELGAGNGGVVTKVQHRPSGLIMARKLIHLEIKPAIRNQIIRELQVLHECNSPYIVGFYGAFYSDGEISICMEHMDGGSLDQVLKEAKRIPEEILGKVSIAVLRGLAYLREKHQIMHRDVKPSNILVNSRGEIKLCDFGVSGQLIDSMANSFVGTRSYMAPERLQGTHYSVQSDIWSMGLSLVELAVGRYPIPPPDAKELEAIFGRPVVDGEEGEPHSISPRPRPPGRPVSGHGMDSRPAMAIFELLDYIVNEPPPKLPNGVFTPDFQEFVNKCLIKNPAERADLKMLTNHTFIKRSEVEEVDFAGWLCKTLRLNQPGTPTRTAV

Data set [3] is described as follows: Apparent volume of distribution in Sprague-Dawley rat at 5 mg/kg, iv by HPLC-UV analysis. The note with it: in vivo, read-out: Vz. The data set is classed as ADME, organism-based.
The test system of data set [4] is Mus musculus. The experiment in a line: Anti-fibrotic activity in bleomycin-induced C57BL/6 mouse model of pulmonary fibrosis assessed as increase in respiratory function by measuring expiratory volume at 25 to 75 mg/kg, po administered twice a day for 3 weeks by spirometry analysis. The data set is classed as functional, organism-based. The note with it: dose 25-75 mg/kg.

As for `CC(C)(C)CNc1ncc(Br)c(Nc2ccccc2C(N)=O)n1`, the outcome in the data set on Mus musculus [1] and in the data set with Mus musculus [4] was Active. Moreover, the inhibition in data set [2] amounted to 4.96%. For the same molecule, in data set [3], the Vd was 20.3 L/kg.
